Assay results from US20220153746A1, “NITROGEN OXIDE-DONATING PDE-5 AND/OR PDE-6 INHIBITOR COMPOUNDS, AND USES THEREOF” (ILDONG PHARMACEUTICAL CO., LTD., priority 2020, published 2022).
Like-named read-outs stand apart in the source and are kept apart here.

Assay: PK Phase (Group 2): plasma concentrations and pharmacokinetics of Compound 18 and its metabolite Compound 4 after once daily ocular instillation of Compound 18 nanosuspension for 7 days
Type: in vivo, New Zealand white rabbits
Source text: This example illustrates the procedures and results for the levels of Compound 18 and its metabolite Compound 4 in plasma and ocular tissues of normotensive rabbits following ocular instillation of Compound 18 once daily for 7 consecutive days.
Twenty five (25) male New Zealand white rabbits were divided into 5 groups of varying amounts of animals per group.
The Test article, Compound 18 was formulated as a 2% nanosuspension in DI water containing 0.2% PS80 (polyoxyethylenesorbitan, monooleate (Tween 80)) and 0.4% HPMC (hydroxypropylmethylcellulose) at pH 6.77. Referred to herein as “Compound 18 nanosuspension.”
The study consisted of three groups (Groups 1-3) of 19 male rabbits (NZW) that underwent once daily morning ocular installation (1 eyedrop) for 7 consecutive days (Day 0-6). Groups 4-5 each consisted of 3 male rabbits (NZW) that were not dosed.
Blood samples (1 mL) were collected from the jugular vein at the intervals set out below for each group. The samples were then inverted several times following collection and held on wet ice until centrifuged. Samples were centrifuged within 60 minutes of collection under refrigeration (set at 5° C. for 10 minutes at 2000 g. […]
Plasma and tissue samples from treated animals (Groups 1-3) were analyzed for Compound 18 and its metabolite Compound 4 concentrations by LC-MS/MS.
Pharmacokinetic analysis was conducted using WinNonlin Version 6.2.1 (Pharsight, Mountain View, Calif.), operating as a validated software system. Noncompartmental analysis was conducted using the extravascular administration model for ocular instillation dosing.
The peak plasma concentration, time to achieve peak plasma concentration, half-life, and area under the plasma concentration-time curve (Cmax, Tmax, T1/2, and AUC) were calculated from the PK phase individual animal plasma concentrations for each sampling time/dose group for Compound 18 and its metabolite Compound 4.
BA Assay: Quantitation Range 0.05 to 100 ng/mL for Compound 18, 0.15 to 100 ng/mL for Compound 4.
Plasma calibration standards (PLSTD-A) with Compound 18 concentrations ranging from 0.0500 to 100 ng/mL were prepared by spiking control rabbit plasma with appropriate calibration curve spiking solutions (SS-A). PLQC-A samples with concentrations of 0.150, 5.00, 50.0, and 80.0 ng/mL were prepared by spiking control rabbit plasma with appropriate SS-A-QC spiking solutions.
Plasma calibration standards (PLSTD-B) with Compound 4 concentrations ranging from 0.150 to 100 ng/mL were prepared by spiking control rabbit plasma with appropriate calibration curve spiking solutions (SS-B). PLQC-B samples with concentrations of 0.450, 5.00, 50.0, and 80.0 ng/mL were prepared by spiking control rabbit plasma with appropriate SS-B-QC spiking solutions. PLQC-B-Dil samples at 800 ng/mL were prepared by spiking control rabbit plasma with the SS-B-QC-Dil spiking solution at 16,000 ng/mL, and then diluted 20× with control rabbit plasma prior to extraction.
1. Thaw plasma standards, plasma QC samples, ocular tissue QC samples, incurred plasma samples and ocular tissue samples (AH/VH) (if applicable) on wet ice. Control plasma can be thawed in tepid water. Vortex before taking aliquots.
2. Pipet 50 μL of water for Reagent Blank, 50 μL of control plasma for Double Blank and Blank, 50 μL of pre-spiked plasma for Standards and QC samples, 50 μL of incurred plasma samples (if applicable) into a 96 well plate.
5. Add 200 μL of working internal standard (WIS) solution to all remaining samples.
6. Seal the plate and vortex for approximately 5 minutes. Centrifuge the plate at 3500 rpm for 10 minutes at ˜4° C.
7. Transfer ˜200 μL of each sample supernatant into the appropriate wells of a 96 well plate. Submit for LC MS/MS analysis.
A total of 25 rabbits were used for this study, including 19 treated rabbits and 6 control rabbits. […]

CCCc1nn(C)c2c(=O)[nH]c(-c3cc(S(=O)(=O)N4CC(CCCO[N+](=O)[O-])C4)ccc3OCC)nc12 [Compound 18, 3-(1-((4-ethoxy-3-(1-methyl-7-oxo-3-propyl-6,7-dihydro-1H-pyrazolo[4,3-d]pyrimidin-5-yl)phenyl)sulfonyl)azetidin-3-yl)propyl nitrate]
Day 7 Compound 18 Plasma Concentration (0.5 h, animal 207665): BQL (BQL = Below lower limit of quantitation (0.0500 ng/mL for Compound 18)
Day 1 Compound 18 Plasma Concentration (1 h, animal 207664): BQL^a (BQL = Below lower limit of quantitation (0.0500 ng/mL for Compound 18)
Day 1 Compound 18 Plasma Concentration (1 h, animal 207665): BQL (BQL = Below lower limit of quantitation (0.0500 ng/mL for Compound 18)
Day 7 Compound 18 Plasma Concentration (1 h, animal 207665): BQL (BQL = Below lower limit of quantitation (0.0500 ng/mL for Compound 18)
Day 1 Compound 18 Plasma Concentration (2 h, animal 207664): BQL (BQL = Below lower limit of quantitation (0.0500 ng/mL for Compound 18)
Day 1 Compound 18 Plasma Concentration (2 h, animal 207665): BQL (BQL = Below lower limit of quantitation (0.0500 ng/mL for Compound 18)
Day 7 Compound 18 Plasma Concentration (2 h, animal 207665): BQL (BQL = Below lower limit of quantitation (0.0500 ng/mL for Compound 18)
Day 1 Compound 18 Plasma Concentration (2 h, animal 207666): BQL (BQL = Below lower limit of quantitation (0.0500 ng/mL for Compound 18)
Day 7 Compound 18 Plasma Concentration (2 h, animal 207667): BQL (BQL = Below lower limit of quantitation (0.0500 ng/mL for Compound 18)
Day 1 Compound 18 Plasma Concentration (4 h, animal 207664): BQL (BQL = Below lower limit of quantitation (0.0500 ng/mL for Compound 18)
Day 7 Compound 18 Plasma Concentration (4 h, animal 207664): BQL (BQL = Below lower limit of quantitation (0.0500 ng/mL for Compound 18)
Day 1 Compound 18 Plasma Concentration (4 h, animal 207665): BQL (BQL = Below lower limit of quantitation (0.0500 ng/mL for Compound 18)
Day 7 Compound 18 Plasma Concentration (4 h, animal 207665): BQL (BQL = Below lower limit of quantitation (0.0500 ng/mL for Compound 18)
Day 1 Compound 18 Plasma Concentration (4 h, animal 207667): BQL (BQL = Below lower limit of quantitation (0.0500 ng/mL for Compound 18)
Day 7 Compound 18 Plasma Concentration (4 h, animal 207667): BQL (BQL = Below lower limit of quantitation (0.0500 ng/mL for Compound 18)
Day 1 Compound 18 Plasma Concentration (8 h, animal 207664): BQL (BQL = Below lower limit of quantitation (0.0500 ng/mL for Compound 18)
Day 7 Compound 18 Plasma Concentration (8 h, animal 207664): BQL (BQL = Below lower limit of quantitation (0.0500 ng/mL for Compound 18)
Day 1 Compound 18 Plasma Concentration (8 h, animal 207665): BQL (BQL = Below lower limit of quantitation (0.0500 ng/mL for Compound 18)
Day 1 Compound 18 Plasma Concentration (8 h, animal 207666): BQL (BQL = Below lower limit of quantitation (0.0500 ng/mL for Compound 18)
Day 1 Compound 18 Plasma Concentration (8 h, animal 207667): BQL (BQL = Below lower limit of quantitation (0.0500 ng/mL for Compound 18)
Day 7 Compound 18 Plasma Concentration (8 h, animal 207667): BQL (BQL = Below lower limit of quantitation (0.0500 ng/mL for Compound 18)
Day 1 Compound 18 Plasma Concentration (24 h, animal 207664): BQL (BQL = Below lower limit of quantitation (0.0500 ng/mL for Compound 18)
Day 7 Compound 18 Plasma Concentration (24 h, animal 207664): BQL (BQL = Below lower limit of quantitation (0.0500 ng/mL for Compound 18)
Day 1 Compound 18 Plasma Concentration (24 h, animal 207665): BQL (BQL = Below lower limit of quantitation (0.0500 ng/mL for Compound 18)
Day 7 Compound 18 Plasma Concentration (24 h, animal 207665): BQL (BQL = Below lower limit of quantitation (0.0500 ng/mL for Compound 18)
Day 1 Compound 18 Plasma Concentration (24 h, animal 207667): BQL (BQL = Below lower limit of quantitation (0.0500 ng/mL for Compound 18)
In-life observations (Groups 1-3, Compound 18 nanosuspension 1 drop/eye/day for 7 days, except animal #207664 discolored skin and rapid respiratory rate on Day 7): normal following dosing
concentration at 0.5 h (male, New Zealand white, rabbit, plasma, other: ocular instillation (eye drop), 0.821 mg/kg/day, 0.5 h, Mean of 4 animals, BQL set to 0, read-out: Day 7 Compound 18 Plasma Concentration): 0.0811 ng/mL
concentration at 0.5 h (male, New Zealand white, rabbit, plasma, other: ocular instillation (eye drop), 0.821 mg/kg/day, 0.5 h, animal 207664, read-out: Day 7 Compound 18 Plasma Concentration): 0.0978 ng/mL
concentration at 0.5 h (male, New Zealand white, rabbit, plasma, other: ocular instillation (eye drop), 0.821 mg/kg/day, 0.5 h, animal 207666, read-out: Day 7 Compound 18 Plasma Concentration): 0.163 ng/mL
concentration at 0.5 h (male, New Zealand white, rabbit, plasma, other: ocular instillation (eye drop), 0.821 mg/kg/day, 0.5 h, animal 207667, read-out: Day 7 Compound 18 Plasma Concentration): 0.0634 ng/mL
concentration at 1 h (male, New Zealand white, rabbit, plasma, other: ocular instillation (eye drop), 0.821 mg/kg/day, 1 h, Mean of 4 animals, BQL set to 0, read-out: Day 7 Compound 18 Plasma Concentration): 0.15 ng/mL
concentration at 1 h (male, New Zealand white, rabbit, plasma, other: ocular instillation (eye drop), 0.821 mg/kg/day, 1 h, animal 207664, read-out: Day 7 Compound 18 Plasma Concentration): 0.306 ng/mL
concentration at 1 h (male, New Zealand white, rabbit, plasma, other: ocular instillation (eye drop), 0.821 mg/kg/day, 1 h, animal 207666, read-out: Day 7 Compound 18 Plasma Concentration): 0.131 ng/mL
concentration at 1 h (male, New Zealand white, rabbit, plasma, other: ocular instillation (eye drop), 0.821 mg/kg/day, 1 h, animal 207667, read-out: Day 7 Compound 18 Plasma Concentration): 0.161 ng/mL
concentration at 2 h (male, New Zealand white, rabbit, plasma, other: ocular instillation (eye drop), 0.821 mg/kg/day, 2 h, Mean of 4 animals, BQL set to 0, read-out: Day 1 Compound 18 Plasma Concentration): 0.0208 ng/mL
concentration at 2 h (male, New Zealand white, rabbit, plasma, other: ocular instillation (eye drop), 0.821 mg/kg/day, 2 h, Mean of 4 animals, BQL set to 0, read-out: Day 7 Compound 18 Plasma Concentration): 0.0657 ng/mL
concentration at 2 h (male, New Zealand white, rabbit, plasma, other: ocular instillation (eye drop), 0.821 mg/kg/day, 2 h, animal 207664, read-out: Day 7 Compound 18 Plasma Concentration): 0.188 ng/mL
concentration at 2 h (male, New Zealand white, rabbit, plasma, other: ocular instillation (eye drop), 0.821 mg/kg/day, 2 h, animal 207666, read-out: Day 7 Compound 18 Plasma Concentration): 0.0747 ng/mL
concentration at 2 h (male, New Zealand white, rabbit, plasma, other: ocular instillation (eye drop), 0.821 mg/kg/day, 2 h, animal 207667, read-out: Day 1 Compound 18 Plasma Concentration): 0.083 ng/mL
concentration at 4 h (male, New Zealand white, rabbit, plasma, other: ocular instillation (eye drop), 0.821 mg/kg/day, 4 h, Mean of 4 animals, BQL set to 0, read-out: Day 1 Compound 18 Plasma Concentration): 0.0164 ng/mL
concentration at 4 h (male, New Zealand white, rabbit, plasma, other: ocular instillation (eye drop), 0.821 mg/kg/day, 4 h, Mean of 4 animals, BQL set to 0, read-out: Day 7 Compound 18 Plasma Concentration): 0.017 ng/mL
concentration at 4 h (male, New Zealand white, rabbit, plasma, other: ocular instillation (eye drop), 0.821 mg/kg/day, 4 h, animal 207666, read-out: Day 1 Compound 18 Plasma Concentration): 0.0655 ng/mL
concentration at 4 h (male, New Zealand white, rabbit, plasma, other: ocular instillation (eye drop), 0.821 mg/kg/day, 4 h, animal 207666, read-out: Day 7 Compound 18 Plasma Concentration): 0.0678 ng/mL
concentration at 8 h (male, New Zealand white, rabbit, plasma, other: ocular instillation (eye drop), 0.821 mg/kg/day, 8 h, Mean of 4 animals, BQL set to 0, read-out: Day 1 Compound 18 Plasma Concentration): 0 ng/mL
